In US20110250273A1, “COMPOSITIONS OF PROTON PUMP INHIBITORS, KITS AND METHODS OF THEIR USE TO TREAT DIABETES” (Melford Scientific, LLC, priority 2008, published 2011):
Marks after values point to notes of the source that are not given here.

Columns and labels:
Format in all cases: in vivo, human
[1] = system: Type II diabetic patients; assay: 2 hour glucose tolerance test during 24 week omeprazole trial (Example 4); conditions: for C-Peptide 1 hour / C-Peptide 2 hours / Glucose 1 hour / Glucose 2 hours / Insulin 1 hour / Insulin 2 hours: after 75 g glucose
Experimental: (§1) Seven Type II diabetic patients were administered omeprazole for 24 weeks and data was obtained from fasting and following a 2 hour glucose tolerance test at 8 week intervals and compared to baseline values. Statistical comparisons and analysis were performed with a commercial program, Analyse-it, version 2.20.
(§2) Subjects: Five males, 2 females, age range 42-68 years, mean age 54+10 years. BMI's ranged from 31 to 49, mean 38+6. All subjects had co-morbid hypertension, four had co-morbid dyslipidemia and two had co-morbid hypothyroidism. All were stable on oral diabetes medications with 7/7 on metformin, 6/7 on pioglitazone (Actos), 4/7 on a DPP-4 inhibitor, sitagliptan (Januvia) and 4/7 on a Sulfonylurea. All subjects received a physical exam, review of systems and a baseline EKG prior to initiating the PPI trial. Subjects were then seen and evaluated at monthly intervals interviewed for adverse events and monitored for medication compliance and maintenance of daily blood glucose logs.
(§3) Design: All subjects continued on their respective oral antidiabetic medications throughout the study. Baseline data was obtained in a fasting state after an overnight fast. Subjects were then administered 75 g of glucose and blood samples obtained at 1 and 2 hours. Following collection of baseline data, subjects were administered Omeprazole Delayed-Release Capsules USP, (Apotex Inc., Toronto, Canada M9L 179), 40 mg orally twice daily and blood samples again obtained after 8, and 16 weeks. Medications were not taken on the mornings of testing. Following the 16 week sample collection, subjects were increased to 80 mg Omeprazole twice daily and blood samples again obtained at 24 weeks.
(§4) Measurements: Helicobacter Pylori IgG was obtained on each subject as a baseline as were Hemoglobin A1c and fasting Gastrin. Each 2 hour glucose tolerance test provided fasting glucose, insulin and c-peptide as well as 1 hour and 2 hour glucose and stimulated insulin and c-peptide. All measurements were obtained through a commercial laboratory using standardized analytical methods, Quest Diagnostics Laboratory, 5850 Rogerdale Road, Houston, Tex. 77072.

[2] = system: Type II diabetic patients; assay: Tolerability / adverse events in 24 week omeprazole trial (Example 4); conditions: all doses (40 mg and 80 mg twice daily), 24 weeks
Source text: as §2, §3

[3] = system: Type II diabetic patients; assay: Hemoglobin A1c, Beta cell area and plasma gastrin during 24 week omeprazole trial (Example 4); conditions: for Beta Cell Area, %: calculated using the 2 hour glucose tolerance value by the method of Meier et al
Experimental: as §1, §2, §3, §4
Table 2 summarizes the effects of PPI administration on plasma Gastrin, Hemoglobin A1c and % Beta Cell area (calculated using the 2 hour glucose tolerance value by the method of Meier et al, Diabetes, vol 58, 1595-1603, 2009). […] Hemoglobin A1c, a measure of average blood glucose, was reduced by approximately 0.9% in this cohort, consistent with improved diabetes control (FIG. 5). Finally, the calculated Beta cell mass increased across the treatment period by approximately 25%.

[4] = system: Type II diabetic patients; assay: Population comparison of HgbA1c in treated diabetic patients with or without a PPI (Examples 1-3); conditions: Example 2; 53 Metformin only patients, 11 Metformin plus proton pump inhibitor
Experimental: For a population of 347 Type II diabetic patients with recent HgbA1c measurements of an average 7.53% with a standard deviation of +/−1.77%. All were treated using insulin injections and/or a variety of oral agents, such as the above noted metformin, and other anti-diabetic medicines. The patients were treated for differing periods of time ranging from 3 months to 30 years.
The two groups were compared using a two-Sample T test that is a classical statistical test. […] The difference between the two groups was 0.61%, which is a significant difference with a p-value of 0.002.
64 total patients, of which 53 patients that were treated using only Metformin for the treatment of diabetes and 11 took Metformin and a proton pump inhibitor.
In this population, 79 patients were dosed with a sulfonylurea, either alone or in combination with metformin and/or pioglitazone or rosiglitazone. These 79 patients were not provided with insulin or sitagliptin.

[5] = 8 weeks PPI, Omeprazole 40 mg orally twice daily
[6] = 16 weeks PPI, Omeprazole 40 mg orally twice daily
[7] = 24 weeks PPI, increased to 80 mg Omeprazole twice daily after week 16

COc1ccc2[nH]c([S+]([O-])Cc3ncc(C)c(OC)c3C)nc2c1 (centres unmarked) [Omeprazole, 5-methoxy-2-[(4-methoxy-3,5-dimethyl-2-pyridinyl)methyl]sulfinyl-1H-benzimidazole]
C-Peptide Fasting [1, 5]: 4.0
Glucose Fasting [1, 5]: 127
Insulin Fasting [1, 5]: 13.6
C-Peptide 1 hour [1, 5]: 7.1
C-Peptide 2 hours [1, 5]: 8.6***
Glucose 1 hour [1, 5]: 235#
Glucose 2 hours [1, 5]: 226
Insulin 1 hour [1, 5]: 38.7
Insulin 2 hours [1, 5]: 29.9
C-Peptide Fasting [1, 6]: 3.4
Glucose Fasting [1, 6]: 136
Insulin Fasting [1, 6]: 12
C-Peptide 1 hour [1, 6]: 6.0
C-Peptide 2 hours [1, 6]: 7.9#
Glucose 1 hour [1, 6]: 206*
Glucose 2 hours [1, 6]: 229**
Insulin 1 hour [1, 6]: 24.7
Insulin 2 hours [1, 6]: 36.1
C-Peptide Fasting [1, 7]: 3.6
Glucose Fasting [1, 7]: 147
Insulin Fasting [1, 7]: 10.9
C-Peptide 1 hour [1, 7]: 5.8
C-Peptide 2 hours [1, 7]: 7.9+
Glucose 1 hour [1, 7]: 251
Glucose 2 hours [1, 7]: 258
Insulin 1 hour [1, 7]: 25
Insulin 2 hours [1, 7]: 34
1 and 2 hour c-peptide secretion ([1]; after PPI administration): increased
Fasting insulin levels ([1]; after PPI administration): unchanged
Stimulated insulin secretion ([1]; at both 1 and 2 hours, after PPI administration): increased
Maximum glucose excursion versus baseline ([1]; at both 1 and 2 hours, 8 and 16 weeks, statistically significant at 16 weeks): reduced
Fasting blood glucose versus baseline ([1]; at both 8 and 16 weeks): reduced
Adverse events [2]: no reports of adverse events
Tolerability [2]: well tolerated
Percent hemoglobin A1c reduction from baseline ([3]; 8, 16 and 24 weeks after taking PPI, FIG. 5): at least 0.6%
Hemoglobin A1c, % [3, 5]: 7.7%
Plasma Gastrin [3, 5]: 207 pg/mL
Beta Cell Area, % ([3]; 8 weeks PPI): 0.46%
Hemoglobin A1c, % [3, 6]: 7.8%
Plasma Gastrin [3, 6]: 174 pg/mL
Beta Cell Area, % ([3]; 16 weeks PPI): 0.51%
Beta Cell Area, % ([3]; 24 weeks PPI): 0.40%
Hemoglobin A1c, % [3, 7]: 7.9%
Plasma Gastrin [3, 7]: 232 pg/mL
Calculated Beta cell mass increase ([3]; across the treatment period): approximately 25%
Change in percent hemoglobin A1c ([3]; all patients, statistically significant, FIG. 1): decrease
Hemoglobin A1c reduction ([3]; in this cohort of seven patients, versus baseline): approximately 0.9%
Plasma gastrin versus baseline ([3]; long term PPI administration, serum levels gradually reduced over time): markedly elevated
Slope of linear best fit of hemoglobin A1c ([3]; seven type II diabetics, 24 week trial, FIG. 1): −0.021 % (HgbA1c) per week

CN(C)C(=N)N=C(N)N [Metformin]
Average HgbA1c [4]: 7.27%
